Laboratory results published in US10184115B2, “Mutated cellobiose dehydrogenase with increased substrate specificity” (DIRECTSENS GMBH, priority 2012, dated 2019).

Molecular target: T1, Myriococcum thermophilum cellobiose dehydrogenase (CDH, SEQ ID NO: 1) variant N313S (Thermothelomyces myriococcoides, UniProt A9XK88, N313S)
T1 sequence (A9XK88 22-828 N313S): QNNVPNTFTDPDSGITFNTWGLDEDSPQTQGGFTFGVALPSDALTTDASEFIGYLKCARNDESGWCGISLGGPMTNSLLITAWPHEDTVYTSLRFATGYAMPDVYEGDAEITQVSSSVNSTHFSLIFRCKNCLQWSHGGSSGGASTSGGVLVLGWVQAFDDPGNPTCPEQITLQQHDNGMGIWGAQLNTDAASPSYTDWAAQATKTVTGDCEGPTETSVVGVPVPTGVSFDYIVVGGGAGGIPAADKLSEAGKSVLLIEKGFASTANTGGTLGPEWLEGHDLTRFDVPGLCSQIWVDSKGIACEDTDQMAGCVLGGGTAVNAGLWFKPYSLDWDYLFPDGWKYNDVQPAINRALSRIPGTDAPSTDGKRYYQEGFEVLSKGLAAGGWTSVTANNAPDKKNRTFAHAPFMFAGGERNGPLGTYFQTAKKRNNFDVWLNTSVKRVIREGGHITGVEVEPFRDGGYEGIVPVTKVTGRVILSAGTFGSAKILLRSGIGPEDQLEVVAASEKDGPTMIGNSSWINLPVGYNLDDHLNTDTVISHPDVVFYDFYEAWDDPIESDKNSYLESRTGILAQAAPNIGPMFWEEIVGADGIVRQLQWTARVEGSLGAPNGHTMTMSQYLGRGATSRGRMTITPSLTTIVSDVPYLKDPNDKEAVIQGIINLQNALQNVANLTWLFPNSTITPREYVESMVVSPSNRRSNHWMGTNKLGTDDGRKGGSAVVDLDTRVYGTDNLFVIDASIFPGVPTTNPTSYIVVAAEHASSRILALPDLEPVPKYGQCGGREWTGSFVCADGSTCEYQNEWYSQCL
Assay: Steady-state kinetics, DCIP assay: M. thermophilum CDH N313S
Format: biochemical
Conditions: apparent, pH 4.5, 30° C.
Method: Enzyme activity was assayed at 30° C. using either the DCIP (Karapetyan et al., 2005 Journal of Biotechnology 121: 34-48) or cytochrome c (Canevascini et al., 1991, European Journal of Biochemistry 198: 43-52) as electron acceptor. […] Stock solutions of carbohydrates used for kinetic measurements were prepared in the respective buffer and allowed to stand overnight for mutarotation, while stock solutions of electron acceptors were prepared in water and immediately used. The reaction stoichiometry is 1 for the two-electron acceptor DCIP (1 mole of DCIP reduced per mole of carbohydrate oxidized), but 2 for the one-electron acceptor cytochrome c. Kinetic constants were calculated by fitting the observed data to the Henri-Michaelis-Menten equation or to the adapted model for substrate inhibition using nonlinear least-squares regression and the program SigmaPlot (Systat Software, San Jose, Calif., USA). […]
Recombinant wild-type CDH as well as variants were produced in 1 L baffled flasks. […] Increase in activity was monitored using the DCIP and the cytochrome c enzyme assays. […]
The sample was loaded on a 20 mL PHE Sepharose FF column (HR26/20) equilibrated with 50 mM Na-acetate buffer pH 5.5 containing 20% ammonium sulfate. […] Fractions were tested for CDH activity and pooled according to the highest Reinheitszahl (RZ, calculated from the absorbance ratio 420 nm/280 nm). […]

In the case of `OC[C@H]1OC(O)[C@H](O)[C@@H](O)[C@@H]1O` (some centres unmarked) [Glucose, glucose], the kcat is reported as 6.8 s⁻¹ and the kcat/KM is reported as 8.8 M⁻¹ s⁻¹.
